# From patent US12252488B2 (Nimbus Saturn, Inc., priority 2021, dated 2025)
# Molecular target: T1, HPK1 (Homo sapiens, UniProt Q92918)
# T1 construct: purchased Invitrogen
# Experiment: HPK1 biochemical enzyme assay (microfluidic mobility shift assay)
# Conditions: 1000 uM (1 mM) ATP; Caliper mobility shift; 1.5 nM HPK1; 30 min preincubation; read-out: HPK1 1000UMATP caliper IC50
# Description: Example 33. HPK1 Biochemical Enzyme Assay
# HPK1 biochemical enzyme assay: HPK1 enzyme inhibition was measured using a microfluidic mobility shift assay. Reactions were performed in a 384-well plate, containing 1.5 nM HPK1 (Invitrogen), in assay buffer (Carna Biosciences; pH 7.4). Test compounds were titrated in ten point curves (top final assay concentration 3 μM), and preincubated with enzyme/substrate mix for 30 min prior to initiation of the reaction by addition of ATP (1 mM final concentration) and substrate (1 μM final concentration; Carna Biosciences) diluted in assay buffer supplemented by MgCl2 (final assay concentration of 5 mM). Following 60 min incubation at RT, the reaction was terminated by addition of 60 μl/well termination buffer (Carna Biosciences) and signal determination using a Caliper EZ Reader (Perkin Elmer, UK).
# The compound numbers correspond to the compound numbers in Table 1. Compounds having an activity designated as “A” provided an IC50≤100 nM; compounds having an activity designated as “B” provided an IC50>100 nM and ≤1,000 nM; compounds having an activity designated as “C” provided an IC50>1,000 nM.
# T1 sequence (Q92918 whole entry): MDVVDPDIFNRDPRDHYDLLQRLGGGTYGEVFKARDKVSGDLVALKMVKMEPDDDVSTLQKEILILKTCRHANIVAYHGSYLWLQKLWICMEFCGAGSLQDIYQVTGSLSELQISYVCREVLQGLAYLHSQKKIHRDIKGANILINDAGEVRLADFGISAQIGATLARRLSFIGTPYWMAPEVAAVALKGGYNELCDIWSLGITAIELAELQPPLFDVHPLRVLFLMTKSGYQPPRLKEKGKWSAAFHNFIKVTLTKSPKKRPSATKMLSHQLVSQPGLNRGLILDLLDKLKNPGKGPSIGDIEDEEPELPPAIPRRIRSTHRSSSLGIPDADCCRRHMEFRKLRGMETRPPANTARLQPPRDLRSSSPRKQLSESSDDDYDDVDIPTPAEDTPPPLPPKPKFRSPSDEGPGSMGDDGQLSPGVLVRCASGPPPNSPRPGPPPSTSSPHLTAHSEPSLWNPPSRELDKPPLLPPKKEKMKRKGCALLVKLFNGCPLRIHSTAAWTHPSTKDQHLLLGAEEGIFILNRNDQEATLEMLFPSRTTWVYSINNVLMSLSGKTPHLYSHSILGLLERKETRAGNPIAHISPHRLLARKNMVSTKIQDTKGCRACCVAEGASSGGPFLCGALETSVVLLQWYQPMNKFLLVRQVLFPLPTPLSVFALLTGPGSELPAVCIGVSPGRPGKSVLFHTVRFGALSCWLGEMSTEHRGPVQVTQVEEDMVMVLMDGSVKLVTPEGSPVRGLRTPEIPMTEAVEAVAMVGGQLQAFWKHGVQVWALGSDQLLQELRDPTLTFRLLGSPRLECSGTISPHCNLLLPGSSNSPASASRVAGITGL
row,Compound,IC50
1,"O=c1[nH]ccc2nc(-c3ccc(CN4CCOCC4)cc3F)cc(Nc3ccc(N4CCC(O)CC4)cn3)c12 [I-181, 2-[2-fluoro-4-(morpholino-methyl)phenyl]-4-[[5-(4-hydroxy-1-piperidyl)-2-pyridyl]amino]-6H-1,6-naphthyridin-5-one]",> 1000 nM
2,"CC(C)c1cc(Nc2ccc(S(=O)(=O)N3CCCCC3)cn2)c2c(=O)[nH]ccc2n1 [I-31, 2-isopropyl-4-[[5-(1-piperidyl-sulfonyl)-2-pyridyl]amino]-6H-1,6-naphthyridin-5-one]",100 to 1000 nM
3,"C[C@@H]1COC[C@@H](C)N1c1ccc(Nc2cc(-c3ccc(NC(=O)C4CCCCC4)cc3F)nc3cc[nH]c(=O)c23)nc1 [I-191, N-[4-[4-[[5-[(3R,5R)-3,5-dimethyl-morpholin-4-yl]-2-pyridyl]amino]-5-oxo-6H-1,6-naphthyridin-2-yl]-3-fluoro-phenyl] cyclohexane-carboxamide]",≤ 100 nM
4,"CC(C)(O)c1ccc(F)c(-c2cc(Nc3ccc(N4CCC(O)CC4)cn3)c3c(=O)[nH]ccc3n2)c1 [I-116, 2-[2-fluoro-5-(1-hydroxy-1-methyl-ethyl)phenyl]-4-[[5-(4-hydroxy-1-piperidyl)-2-pyridyl]amino]-6H-1,6-naphthyridin-5-one]",100 to 1000 nM
5,"O=c1[nH]ccc2nc(C3CC3)cc(Nc3ccc(N4CCC(O)CC4)cn3)c12 [I-17, 2-cyclopropyl-4-[[5-(4-hydroxy-1-piperidyl)-2-pyridyl]amino]-6H-1,6-naphthyridin-5-one]",100 to 1000 nM
6,"O=C(c1cc(F)c(-c2cc(Nc3ccc(N4CCC(O)CC4)cn3)c3c(=O)[nH]ccc3n2)cc1F)N1CCCCC1 [I-231, 2-[2,5-difluoro-4-(piperidine-1-carbonyl)phenyl]-4-[[5-(4-hydroxy-1-piperidyl)-2-pyridyl]amino]-6H-1,6-naphthyridin-5-one]",100 to 1000 nM
7,"COc1cc(-c2cc(Nc3ccc(C(=O)N4CCCC4)cc3)c3c(=O)[nH]ccc3n2)c(F)cc1C(=O)N1CCCCC1 [I-165, 2-[2-fluoro-5-methoxy-4-(piperidine-1-carbonyl)phenyl]-4-[4-(pyrrolidine-1-carbonyl)amino]-6H-1,6-naphthyridin-5-one]",100 to 1000 nM
8,"CN1CCC(c2cc(Nc3ccc(N4CCC(O)CC4)cn3)c3c(=O)[nH]ccc3n2)CC1 [I-75, 4-[[5-(4-hydroxy-1-piperidyl)-2-pyridyl]amino]-2-(1-methyl-4-piperidyl)-6H-1,6-naphthyridin-5-one]",≤ 100 nM
9,"O=c1[nH]cnc2cc(-c3c(F)cccc3F)nc(Nc3ccc(N4CCC(O)CC4)cn3)c12 [I-13, 7-(2,6-difluoro-phenyl)-5-[[5-(4-hydroxy-1-piperidyl)-2-pyridyl]amino]-3H-pyrido[4,3-d] pyrimidin-4-one]",100 to 1000 nM
10,"CC(C)c1cc(Nc2ccc(N3CCNCC3)cn2)c2c(=O)[nH]ccc2n1 [I-21, 2-isopropyl-4-[(5-piperazin-1-yl-2-pyridyl)amino]-6H-1,6-naphthyridin-5-one]",100 to 1000 nM
11,"NC(=O)c1ccc(F)c(-c2cc(Nc3ccc(N4CCC(O)CC4)cn3)c3c(=O)[nH]ccc3n2)c1 [I-51, 4-fluoro-3-[4-[[5-(4-hydroxy-1-piperidyl)-2-pyridyl]amino]-5-oxo-6H-1,6-naphthyridin-2-yl]benzamide]",100 to 1000 nM
12,"O=C1Cc2cc(-c3cc(Nc4ccc(N5CCC(O)CC5)cn4)c4c(=O)[nH]ccc4n3)cnc2N1 [I-226, 4-[[5-(4-hydroxy-1-piperidyl)-2-pyridyl]amino]-2-(2-oxo-1,3-dihydro-pyrrolo[2,3-b]pyridin-5-yl)-6H-1,6-naphthyridin-5-one]",≤ 100 nM
13,"COc1cc(-c2cc(Nc3ccc(N4CCNCC4)cn3)c3c(=O)[nH]ccc3n2)ccc1C(=O)N1CCCCC1 [I-187, 2-[3-methoxy-4-(piperidine-1-carbonyl)phenyl]-4-[(5-piperazin-1-yl-2-pyridyl)amino]-6H-1,6-naphthyridin-5-one]",100 to 1000 nM
14,"O=c1[nH]ccc2nc(C3CC4CCC3C4)cc(Nc3ccc(N4CCC(O)CC4)cn3)c12 (stereo not drawn) [I-35, 4-[[5-(4-hydroxy-1-piperidyl)-2-pyridyl]amino]-2-norbornan-2-yl-6H-1,6-naphthyridin-5-one]",100 to 1000 nM
15,"CC(C)c1cccc(-c2cc(Nc3ccc(N4CCC(O)CC4)cn3)c3c(=O)[nH]ccc3n2)c1 [I-99, 4-[[5-(4-hydroxy-1-piperidyl)-2-pyridyl]amino]-2-(3-isopropyl-phenyl)-6H-1,6-naphthyridin-5-one]",100 to 1000 nM
16,O=c1[nH]cc(-c2ccccc2)c2nc(-c3c(F)cccc3F)cc(Nc3ccc(N4CCC(O)CC4)cn3)c12 [I-56],> 1000 nM
17,"COc1cc(-c2cc(Nc3ccc(N4CCC(OC)CC4)cn3)c3c(=O)[nH]ccc3n2)c(F)cc1C(=O)N1CCCCC1 [I-209, 2-[2-fluoro-5-methoxy-4-(piperidine-1-carbonyl)phenyl]-4-[[5-(4-methoxy-1-piperidyl)-2-pyridyl]amino]-6H-1,6-naphthyridin-5-one]",100 to 1000 nM
18,"O=C(c1ccc(-c2cc(Nc3ccc(N4CCC(O)CC4)cn3)c3c(=O)[nH]ccc3n2)c(F)c1)N1CCC1 [I-126, 2-[4-(azetidine-1-carbonyl)-2-fluoro-phenyl]-4-[[5-(4-hydroxy-1-piperidyl)-2-pyridyl]amino]-6H-1,6-naphthyridin-5-one]",100 to 1000 nM
19,"O=c1[nH]ccc2nc(-c3ccccc3F)cc(Nc3ccc(N4CCC(O)CC4)cn3)c12 [I-64, 2-(2-fluoro-phenyl)-4-[[5-(4-hydroxy-1-piperidyl)-2-pyridyl]amino]-6H-1,6-naphthyridin-5-one]",100 to 1000 nM

# Continued, values first:
row,IC50,Compound
1,≤ 100 nM,"O=C(Nc1ccc(-c2cc(Nc3ccc(C4CCOC4)cn3)c3c(=O)[nH]ccc3n2)c(F)c1)C1CCCCC1 (single isomer, unassigned) [I-267, N-[3-fluoro-4-[5-oxo-4-[(5-THF-3-yl-2-pyridyl)amino]-6H-1,6-naphthyridin-2-yl]phenyl] cyclohexane carboxamide]"
2,≤ 100 nM,"O=c1[nH]ccc2nc(-c3c(F)ccc4c3CCNC4)cc(Nc3ccc(N4CCC(O)CC4)cn3)c12 [I-220, 2-(6-fluoro-1,2,3,4-tetrahydro-isoquinolin-5-yl)-4-[[5-(4-hydroxy-1-piperidyl)-2-pyridyl]amino]-6H-1,6-naphthyridin-5-one]"
3,100 to 1000 nM,"CCNC(=O)c1ccc(Nc2nc(-c3c(F)cccc3F)cc3nc[nH]c(=O)c23)cc1 [I-12, 4-[[7-(2,6-difluorophenyl)-4-oxo-3H-pyrido[4,3-d]pyrimidin-5-yl]amino]-N-ethyl-benzamide]"
4,> 1000 nM,"COc1cc(-c2cc(Nc3ccc(N4CCC(O)CC4)cn3)c3c(=O)[nH]ccc3n2)c(F)cc1C(=O)N1CCCCC1 [I-112, 2-[2-fluoro-5-methoxy-4-(piperidine-1-carbonyl)phenyl]-4-[[5-(4-hydroxy-1-piperidyl)-2-pyridyl]amino]-6H-1,6-naphthyridin-5-one]"
5,> 1000 nM,"O=C(O)c1c[nH]c(=O)c2c(Nc3ccc(N4CCC(O)CC4)cn3)cc(-c3c(F)cccc3F)nc12 [I-39, 2-(2,6-difluorophenyl)-4-[[5-(4-hydroxy-1-piperidyl)-2-pyridyl]amino]-5-oxo-6H-1,6-naphthyridine-8-carboxylic Acid]"
6,100 to 1000 nM,"CCC(CC)c1cc(Nc2ccc(N3CCC(O)CC3)cn2)c2c(=O)[nH]ccc2n1 [I-32, 2-(1-ethylpropyl)-4-[[5-(4-hydroxy-1-piperidyl)-2-pyridyl]amino]-6H-1,6-naphthyridin-5-one]"
7,> 1000 nM,"Cc1cnccc1-c1cc(Nc2ccc(N3CCC(O)CC3)cn2)c2c(=O)[nH]ccc2n1 [I-280, 4-[[5-(4-hydroxy-1-piperidyl)-2-pyridyl]amino]-2-(3-methyl-4-pyridyl)-6H-1,6-naphthyridin-5-one]"
8,≤ 100 nM,"O=C(Nc1ccc(-c2cc(Nc3ccc(N4C[C@H]5COC[C@H]5C4)cn3)c3c(=O)[nH]ccc3n2)c(F)c1)C1CCCCC1 [I-207, N-[4-[4-[[5-[(3aR,6aS)-1,3,3a,4,6,6a-hexahydro-furo[3,4-c]pyrrol-5-yl]-2-pyridyl]amino]-5-oxo-6H-1,6-naphthyridin-2-yl]-3-fluoro-phenyl] cyclohexane-carboxamide]"
9,> 1000 nM,Cc1ccc(F)c(-c2cc(Nc3ccc(N4CCC(O)CC4)cn3)c3c(=O)[nH]ccc3n2)c1 [I-4I]
10,100 to 1000 nM,O=C(c1ccc(-c2cc(Nc3ccc(N4CCC(O)CC4)cn3)c3c(=O)[nH]ccc3n2)c(F)c1)N1CCOCC1 [I-120]
11,> 1000 nM,"O=C(c1ccc(-c2cc(Nc3ccc(N4CCC(O)CC4)cn3)c3c(=O)[nH]ccc3n2)c(F)c1)N1CCCC(O)C1 (stereo not drawn) [I-145, 2-[2-fluoro-4-(3-hydroxy-piperidine-1-carbonyl)phenyl]-4-[[5-(4-hydroxy-1-piperidyl)-2-pyridyl]amino]-6H-1,6-naphthyridin-5-one]"
12,100 to 1000 nM,"CC(C)c1ccc(F)c(-c2cc(Nc3ccc(N4[C@@H](C)COC[C@@H]4C)cn3)c3c(=O)[nH]ccc3n2)c1 [I-129, 4-[[5-[(3S,5S)-3,5-dimethyl-morpholin-4-yl]-2-pyridyl]amino]-2-(2-fluoro-5-isopropyl-phenyl)-6H-1,6-naphthyridin-5-one]"
13,100 to 1000 nM,"COc1cccc(-c2cc(Nc3ccc(N4CCC(O)CC4)cn3)c3c(=O)[nH]ccc3n2)c1F [I-65, 2-(2-fluoro-3-methoxy-phenyl)-4-[[5-(4-hydroxy-1-piperidyl)-2-pyridyl]amino]-6H-1,6-naphthyridin-5-one]"
14,≤ 100 nM,"COc1cc(-c2cc(Nc3ccc(N4CCNCC4)cn3)c3c(=O)[nH]ccc3n2)c(F)cc1C(=O)N(C)C [I-176, 5-fluoro-2-methoxy-N,N-dimethyl-4-[5-oxo-4-[(5-piperazin-1-yl-2-pyridyl)amino]-6H-1,6-naphthyridin-2-yl] benzamide]"
